Among the data in US20070185172A1, “Organic compounds” (priority 2004, published 2007) are Ki and IC50 values, retold here.

Assay [1] deals with T1, Recombinant human GR (Homo sapiens, UniProt P04150).
T1 construct: purchased Panvera (Madison, Wis., USA); host or cells: baculovirus-infected insect Sf-9 cells
T1 sequence (P04150 1-777): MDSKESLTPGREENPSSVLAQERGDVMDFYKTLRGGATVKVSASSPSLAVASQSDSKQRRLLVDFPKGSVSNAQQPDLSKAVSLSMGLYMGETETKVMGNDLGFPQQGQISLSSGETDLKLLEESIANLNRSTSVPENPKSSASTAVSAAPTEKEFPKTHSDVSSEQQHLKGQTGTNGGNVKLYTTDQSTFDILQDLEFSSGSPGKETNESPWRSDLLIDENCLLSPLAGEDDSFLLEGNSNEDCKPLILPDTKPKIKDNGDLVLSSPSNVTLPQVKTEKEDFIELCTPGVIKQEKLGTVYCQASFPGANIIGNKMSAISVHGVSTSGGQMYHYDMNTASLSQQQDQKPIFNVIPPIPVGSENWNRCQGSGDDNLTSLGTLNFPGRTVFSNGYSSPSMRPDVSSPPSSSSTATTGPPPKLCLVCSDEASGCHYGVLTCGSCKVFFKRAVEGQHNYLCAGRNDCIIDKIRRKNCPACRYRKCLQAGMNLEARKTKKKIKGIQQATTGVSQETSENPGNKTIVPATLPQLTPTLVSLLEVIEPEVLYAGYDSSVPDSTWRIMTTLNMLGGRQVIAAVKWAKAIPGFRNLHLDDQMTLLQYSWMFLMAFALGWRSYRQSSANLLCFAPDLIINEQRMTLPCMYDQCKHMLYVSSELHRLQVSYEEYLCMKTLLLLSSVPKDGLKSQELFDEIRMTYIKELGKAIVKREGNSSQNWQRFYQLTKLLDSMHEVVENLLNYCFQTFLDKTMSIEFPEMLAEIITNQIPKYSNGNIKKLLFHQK
Put plainly: Glucocorticoid receptor binding, fluorescence polarisation with Fluormone-GS1. The conditions noted are these: Fluormone-GS1 ligand, 1 hr at room temperature, Ki calculated from IC50 using the Cheng-Prussoff equation. On the procedure: Binding to the glucocorticoid receptor may be measured in the following assay:
Recombinant human GR expressed in baculovirus-infected insect Sf-9 cells is obtained from Panvera (Madison, Wis., USA), as is GR assay buffer and the proprietary fluorescent ligand Fluormone™-GS1 (200 nM methanol solution). The assay is conducted in 384 well plates by sequential addition of a serially diluted dimethylsulfoxide solution of test compound in water (2 μl), Fluormone™-GS1 (2.2 nM in GR assay buffer, 10 μl) and GR solution (8.8 nM in GR assay buffer, 10 μl). The assay is incubated in the dark at room temperature for 1 hr, prior to fluorescence polarisation measurement using an analyst multiwell instrument with 485 nm excitation and 530 nm emission filters. The concentration of test compound resulting in half-maximum shift in polarisation gives the IC50. Curves are fitted using Origin™ software and Ki values were calculated using the Cheng-Prussoff equation. Compounds of Examples 1, 2, 3, and 4 have Ki values of 0.5, 1.4, 0.4 and 0.2 nM respectively in this assay.

Assay [2] deals with TNF-alpha synthesis and release in human macrophage cell line U937. In words: Inhibition of TNF-alpha synthesis and release in LPS-stimulated differentiated U937 cells. The assay is classed as cell-based. The conditions noted are these: U-937, PMA-differentiated U937 cells, 10 ng/ml LPS, 24 hours, TNFα by sandwich ELISA. On the procedure:
Inhibition of TNF-alpha synthesis and release may be measured by the following assay:
Human macrophage cell line U937 is obtained from American Type Culture Collection (Rockville Md.) and cultured in RPMI 1640 (Gibco UK) supplemented with 10% FCS (Gibco UK). Cell density is adjusted to 4×10^5 cells/ml and the cells are differentiated by adding phorbal myristate acetate (PMA, 20 ng/ml) for 4 hours. The PMA is removed by washing and the adherent cells are incubated for a further 48 hours at 37° C. in a humidified incubator with 5% CO2. Differentiated U937 cells are removed using cell dissociation buffer (Gibco UK) and the cell density is adjusted to 1×10^6 cells/ml. 100 μl of the cell suspension is placed in 96 well culture plates and 50 μl of either medium or compound at the appropriate concentration in dimethylsulfoxide are added. After a preincubation of 20 minutes at 37° C., the cells are stimulated with 10 ng/ml lipopolysaccharide (LPS, Sigma) and the supernatants are harvested after 24 hours of incubation at 37° C. in a humidified incubator with 5% CO2. Concentration of TNFα in the supernatants is determined by sandwich ELISA using two monoclonal antibodies recognising different epitopes of the cytokine (Pharmingen UK). Binding of the second antibody is analysed by stepwise incubation with streptavidin alkaline phosphatase conjugate (Sigma UK) and 4-nitrophenylphosphate disodium salt. Optical density is measured at 405 nm and cytokine concentration calculated based on results from serial diluations of standard recombinant TNFα. Curves are fitted and IC50 values calculated using Origin™ software.

The structures appear in SMILES notation.

Consider `CCCN1C[C@@H]2CC3C4CCC5=CC(=O)C=C[C@]5(C)C4[C@@H](O)C[C@]3(C)[C@]2(C(=O)CO)O1` (stereo partly drawn) [Example 1, (4aR,5S,6aS,6bR,9aS)-5-Hydroxy-6b-(2-hydroxy-acetyl)-4a,6a-dimethyl-8-propyl-4a,4b,5,6,6a,6b,8,9,9a,10,10a,10b,11,12-tetradecahydro-7-oxa-8-pentaleno[2,1-a]phenanthren-2-one], for which the Ki in assay [1] was 0.5 nM. In assay [2], this compound displayed an IC50 of 1.16 nM.

Take `C[C@]12C=CC(=O)C=C1CCC1C2[C@@H](O)C[C@@]2(C)C1C[C@H]1CN(C3CCCCC3)O[C@]12C(=O)CO` (stereo partly drawn) [Example 4, (4aR,5S,6aS,6bR,9aS)-8-Cyclohexyl-5-hydroxy-6b-(2-hydroxy-acetyl)-4a,6a-dimethyl-4a,4b, 5,6,6a,6b,8,9,9a,10,10a,10b,11,12-tetradecahydro-7-oxa-8-aza-pentaleno[2,1-a]-phenan-thren-2-one]: the Ki in assay [1] is 0.2 nM. In assay [2], this compound had an IC50 of 3.57 nM.

On to `CN1C[C@@H]2CC3C4CCC5=CC(=O)C=C[C@]5(C)C4[C@@H](O)C[C@]3(C)[C@]2(C(=O)CO)O1` (stereo partly drawn) [Example 2, (4aR,5S,6aS,6bR,9aS)-5-Hydroxy-6b-(2-hydroxy-acetyl)-4a,6a,8-trimethyl-4a,4b,5,6,6a,6b, 8,9,9a,10a,10b,11,12-tetradecahydro-7-oxa-8-aza-pentaleno[2,1-a]phenanthren-2-one], for which the Ki in assay [1] is 1.4 nM. Besides, in assay [2], inhibition was half-maximal at 4.95 nM (IC50).

As for `CCCCN1C[C@@H]2CC3C4CCC5=CC(=O)C=C[C@]5(C)C4[C@@H](O)C[C@]3(C)[C@]2(C(=O)CO)O1` (stereo partly drawn) [Example 3, (4aR,5S,6aS,6bR,9aS)-8-Butyl-5-hydroxy-6b-(2-hydroxy-acetyl)-4a,6a-dimethyl-4a,4b,5,6,6a,6b,8,9,9a,10,10a,10b,11,12-tetradecahydro-7-oxa-8-aza-pentaleno[2,1-a]phenanthren-2-one], in assay [1], the Ki was 0.4 nM. The compound further registered an IC50 in assay [2] of 0.89 nM.
